The results in this text go back to patent US8232299B2, “Phthalimide derivatives that influence cellular vesicular systems, pharmaceutical compositions, and use thereof” (Avidin Kft., priority 2007, dated 2012).

For data set [1], the system named is pseudorabies Bartha type viruses. It counts as cell-based, pseudorabies virus. Conditions: 100 μM.
The test system of data set [2] is human melanoma (HT168M1). As to the kind of experiment: subcutaneous melanoma tumor model. It counts as in vivo, CB17/scid mice. Conditions: 40 mg/kg per os, once a day five days per week for 3 weeks from day 7; FIG. 8. The procedure: Slightly anesthetized (diethyl ether narcosis) adult male CB17/scid mice born with immunodeficiency were subcutaneously (s.c.) implanted with 8×10^5 cells from in vitro human melanoma (HT168M1) cultures. After tumor cell inoculation animals were randomly assigned into three groups and their ears were marked. From the 7th day after the tumor cell inoculation mice were treated once a day five days per week for 3 weeks with compound 2 (40 mg/kg), or with compound 3b (40 mg/kg) per os by gavage. Control animals were treated with appropriate dilution of the carrier (DMSO) in a similar manner with similar frequency. Body weight changes were monitored once a week for each animal. When subcutaneous tumor reached palpable size its dimensions were also detected with caliper. Tumor volume was estimated by the formula π/6×a×b^2, where “a” is the longer and “b” is the shorter diameter. 30 days after implantation animals were sacrificed by bleeding in Nembutal (75 mg/kg) anesthesia. Evaluation was based on the mass of the primary tumor.
In this experiment the effect of compound 2 and compound 3b was tested in oral administration at the same dose (40 mg/kg).

The target in data set [3] is T1, SEC22b protein (Homo sapiens, UniProt O75396).
T1 sequence (O75396 1-215): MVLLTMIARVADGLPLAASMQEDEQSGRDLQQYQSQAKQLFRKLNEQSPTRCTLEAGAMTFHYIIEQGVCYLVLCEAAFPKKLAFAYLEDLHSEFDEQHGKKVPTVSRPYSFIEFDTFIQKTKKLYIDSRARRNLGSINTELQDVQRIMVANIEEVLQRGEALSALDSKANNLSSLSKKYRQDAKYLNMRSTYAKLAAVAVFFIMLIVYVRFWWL
In words: binding to vesicle movement protein.

Data set [4] relates to MCF7 (Human breast adenocarcinoma). In words: cytotoxic effect on breast carcinoma cell line, MTS test, 24 hours. It counts as cell-based. Conditions: 24 hours incubation, in the concentration range tested. The procedure:
In these experiments HepG2 (human hepatocellular carcinoma) and MCF7 (Human breast adenocarcinoma) cells were used. They were cultured in the following media: For HepG2 Dulbecco's Modified Eagle Medium (D-MEM) (high glucose) (Gibco BRL, Carlsbad, Calif., USA), penicillin (50 IU/ml)-streptomycin ([…]), 10% fetal bovine serum; for MCF7 (Human breast adenocarcinoma) 1:1 mixture of Dulbecco's Modified Eagle Medium (D-MEM) (high glucose) (Gibco BRL, Carlsbad, Calif., USA) and Nutrient Mixture F-12 Ham (Sigma, St. Louis, Mo., USA), penicillin (50 IU/ml)-streptomycin ([…]), 10% fetal bovine serum. Experiments were performed as described in Example 9. with the difference that the incubation time was 24 hours in this case. After the incubation period MTS test (3-(4,5-dimethylthiazol-2-yl)-5-(3-carboxymethoxyphenyl)-2-(4-sulfophenyl)-2H-tetrazolium) (Promega, Madison, Wis., USA) was performed as described above.
Background: Tetrazolium assays rely on reduction of a dye to a coloured formazan, in cell work by metabolically active cells.

Data set [5] relates to RAW.264.7 matured mice macrophages. As to the kind of experiment: MTS test of vitality / metabolic activity of the macrophages. It counts as cell-based. The procedure:
In our experiments we investigated the early TNFα secretion of RAW.264.7 matured mice macrophages. This cell line stores large amount of preformed TNFα. […] Culture supernatant was collected and TNFα content was determined by R&D Duoset ELISA kit (detection limit<62.5 pg/ml). […] So the reduced TNFα level was due to inhibition of the release of preformed TNFα and not due to dying of the cells.
Effects of compound 3a and compound 3b on TNFα secretion and on NF-kappaB activation could have been based on cytotoxicity as well. To exclude that, we determined the metabolic activity of the cells, which is proportional to the cell number, by MTS test 8 hours after the treatment.

As for `CCNc1c(F)c(F)c2c(c1F)C(=O)N(c1c(C(C)C)cccc1C(C)C)C2=O` [Compound 3b, 2-(2,6-diisopropylphenyl)-5-(ethylamino)-4,6,7-trifluoroisoindole-1,3-dione], in data set [1], the “entry of the viruses into the cell” value is listed as “does not inhibit the entry of the viruses into the cell”; the “release and spreading of the viruses in vitro” value is “does inhibit their release and thus their spreading in vitro”. The “plaque size (viral positive cells)” value in data set [1] (24 hours) is 2-6 cells/plaque. Further, the “effect on growth of the subcutaneous primary tumor (tumor mass)” value in data set [2] was “significantly (p=0.05) reduced tumor size”. The “binding to SEC22b protein” value in data set [3] is listed as “can also bind to SEC22b protein”. The “effect on MCF7 cells” value in data set [4] is on record as “weak effect”. In addition, the “vitality of the cells (MTS test)” value in data set [5] (3 hours after the stimulation with LPS) is given as “no cell death was detected”. Moreover, in data set [5] (8 hours after the treatment), the “metabolic activity of the cells (MTS test)” value was “not found to be toxic”.
